# Publication PMC8557901 (Microbiology Spectrum, 2021)
# Experiments:
# [1] = tested on: P. falciparum F32-ART5 quiescent parasites; assay: Quiescent-stage survival assay (QSA); format: cell-based, Plasmodium falciparum; conditions: artemisinin 3 μM 6 h then artemisinin + M1 2.5 μM 24 h versus artemisinin alone; 6-day threshold = active
# Description: The Plasmodium falciparum artemisinin-resistant strain F32-ART5 and its twin artemisinin-sensitive line F32-TEM ([30], [31]) were cultivated at 37°C with 5% CO2 in human red blood cells (EFS [French Blood Bank]) diluted to 2% hematocrit in RPMI 1640 medium supplemented with 5% human serum (EFS) as previously reported ([47]).
# Chemosensitivity evaluation of artemisinin-resistant parasites at the quiescent stage was performed on the F32-ART5 strain using the quiescent-stage survival assay (QSA) ([33]). D-Sorbitol-synchronized ring-stage parasites at 3% parasitemia (2% hematocrit) were first exposed to 3 μM artemisinin for 6 h to induce quiescence of artemisinin-resistant parasites. Then, quiescent parasites were exposed or not (as a control condition) to 2.5 μM M1 for 24 h. After drug exposure, parasite cultures were washed with RPMI 1640 medium and replaced in normal drug-free culture conditions. The time to parasite recrudescence was determined as the time required to reach initial parasitemia. […] In each experiment, results obtained with the condition “artemisinin 3 μM 6 h/artemisinin 3 μM 24 h” were compared to those obtained with the condition “artemisinin 3 μM 6 h/(artemisinin 3 μM + M1 2.5 μM) 24 h” in order to determine the delay in recrudescence time. […] Each experiment was carried out three times independently, and data statistically analyzed. […]
# Microsomal stability = format: in vitro ADME; conditions: pH 7.4; female mouse microsomes (CD-1), 37°C; read-out: half-life (t1/2)
# Description: The tested product and propranolol, used as a reference, were incubated in duplicate (reaction mixture volume of 0.5 ml) with female mouse microsomes (CD-1, 20 mg/ml; BD Gentest) at 37°C in a 50 mM phosphate buffer, pH 7.4, in the presence of MgCl2 (5 mM), NADP (1 mM), glucose-6-phosphate dehydrogenase (G6PD) (0.4 U/ml), and glucose-6-phosphate (5 mM). For the estimation of the intrinsic clearance, 50-μl aliquots were collected at 0, 5, 10, 20, 30, and 40 min and the reaction was stopped with 4 volumes of acetonitrile (ACN) containing the internal standard. After centrifugation at 10,000 × g for 10 min at 4°C, the supernatants were conserved at 4°C for immediate analysis or placed at −80°C in case of postponement of the analysis. Controls (time zero and final time point) in triplicate were prepared by incubation of the internal standard with microsomes denatured by acetonitrile. […] The chromatographic analysis, with a total duration of 4 min, was made with the following gradient: 0 < t < 0.2 min, 2% mobile phase B; 0.2 < t < 2 min, linear increase to 98% mobile phase B; 2 < t < 2.5 min, 98% mobile phase B; 2.5 < t < 2.6 min, linear decrease to 2% mobile phase B; 2.6 < t < 4 min, 2% mobile phase B. The quantification of each compound was obtained by converting the average of the ratios of the analyte/internal standard surfaces to the percentage of consumed product. […]
# [2] = Cytotoxicity on HepG2 cell line (MTT); format: cell-based; conditions: human, HepG2 cells
# Description: The evaluation of the cytotoxicity of the tested molecules on the HepG2 cell line was performed according to the method of Mosman ([42]) with slight modifications. […] Triplicate assays were performed for each sample. Each well was then examined under a microscope to detect possible precipitate formation before the medium was aspirated from the wells. An amount of 100 μl of MTT solution (0.5 mg/ml in medium without FBS) was then added to each well. […] After this time, the MTT solution was removed and DMSO (100 μl) was added to dissolve the resulting blue formazan crystals. Plates were shaken vigorously (700 rpm) for 10 min. The absorbance was measured at 570 nm with 630 nm as the reference wavelength using a Tecan Infinite F-200 microplate reader. DMSO was used as a blank and doxorubicin as a positive control. Cell viability was calculated as the percentage compared to the control (cells incubated without compound). […] CC50 values represent the mean values calculated from three independent experiments.
# [3] = Cytotoxicity on the MDCK renal cell line (MTT); format: cell-based, canine; conditions: dog, MDCK cells
# Description: MDCK cell line (Madin-Darby Canine Kidney cells) was maintained at 37 °C, 5% CO2 with 90% humidity in DMEM supplemented with 5% fetal bovine serum, 1% L-glutamine (200 mM), penicillin (100 U/mL) and streptomycin (100 μg/mL) (complete medium). The evaluation of Gamhepathiopine cytotoxicity on this cell line was performed according to the method of Mosman with slight modifications. Briefly, 3.10^4 cells in 100 μL of complete medium were inoculated into each well of 96-well plates and incubated at 37 °C in a humidified 5% CO2. After 24 h incubation, to obtain adherent cells, 100 μL of medium with various concentrations of Gamhepathipoine dissolved in DMSO were added and refreshed on a daily basis for 72 h at 37 °C. Each sample was tested on 4 technical replicates. The MTT solution (100µL/well, 0.5 mg/mL in medium without FBS) was then added to each well. Cells were incubated for 4 h at 37 °C. The MTT solution was then removed and a mixture of DMSO/Ethanol (1:1; 100 μL/well) was added to dissolve the resulting blue formazan crystals. The absorbance was measured at 540 nm on a Flex Station Microplate Reader.
compound,measurement,setting,value
"Cc1ccc(-c2cc3nc(NC(C)(C)C)[nH]c(=O)c3s2)cc1 [Metabolite M1, 2-(tert-Butylamino)-6-(p-tolyl)thieno[3,2-d]pyrimidin-4(3H)-one]",median delay in recrudescence time,[1],6 days
same,half-life,Microsomal stability,11 min
same,CC50 at 72 h,[2],24 µM
same,CC50 at 72 h,[3],39.5 µM
